Test results reported in patent publication US20200407717A1, “METHODS OF MODULATING ANTISENSE ACTIVITY” (Ionis Pharmaceuticals, Inc., priority 2018, published 2020).
e = 2'-O-(2-methoxyethyl) (MOE); d = 2'-deoxy (DNA)

Tests used:
Type in all cases: cell-based
A431 cells = experiment: Immunofluorescent microscopy co-localization
Experimental: Immunofluorescent staining was used to visualize clathrin, EGFR, and PS-ASOs in A431 cells. Compound no. 446654 has the sequence and structure Cy3-^mCesTesGes^mCesTesAdsGds^mCdsTds^mCdsTdsGdsGdsAdsTesTesTesGesAe (SEQ ID NO: 10). Cells were incubated with FITC labeled epidermal growth factor (EGF) or unlabeled EGF and compound no. 446654 for 30 minutes, then fixed with 4% paraformaldehyde for 20 minutes at room temperature and permeabilized with 0.05% saponin (Sigma) in PBS for 5 minutes. Cells were treated with blocking buffer (1 mg/mL BSA in PBS) for 30 minutes and then incubated with primary antibodies at room temperature for 2-4 hours or at 4° C. overnight. Primary antibodies used were ab30 (Abcam) for EGFR, ab21679 (Abcam) for clathrin, and antibody 610456 (BD Bioscience) for early endosome antigen 1 (EEA1). After three washes with PBS, cells were fluorescently labeled with secondary antibodies at room temperature for 1-2 hours. Secondary antibodies used were anti-mouse conjugated to AF488 (ab150077, Abcam) or AF647 (ab150079, Abcam), and anti-rabbit conjugated to AF488 (ab150113, Abcam) or AF647 (ab150115, Abcam). Nuclei were labeled with Hoechst 33342. Cells were then visualized with a confocal microscope (Olympus FV-1000), and single slices and Z-stack images were obtained. Co-localization between PS-ASOs and different organelles was analyzed using FV10-ASW 3.0 viewer software.

EGFR = experiment: Microscopy of EGF-induced internalization and recycling of EGFR; conditions: with EGF, 16 hours
Experimental: Microscopy studies were also carried out to evaluate the EGF-induced internalization and recycling of EGFR in the presence of Cy3-labeled PS-ASO, compound no. 446654. Cells were treated with EGF alone or EGF and compound no. 446654 for 16 hours. The cells were then either immediately stained and imaged, or the EGF and, if applicable, compound no. 446654 were removed for two hours prior to staining and imaging. Staining and imaging were performed as described above. […] Two hours after removal of EGF, cells show EGFR staining primarily in the plasma membrane. […] Two hours after removal of EGF and/or compound no. 446654, the Cy3 signal remained diffuse throughout the cytoplasm, while EGFR staining primarily localized to the plasma membrane.

HEK cells = experiment: Uptake by flow cytometry, HEK cells
Experimental: Uptake of compound no. 446654 by A431 cells was measured by flow cytometry. A431 cells were treated with a growth factor for 4 hours prior to incubation with compound no. 446654 for 2 hours. Results are presented in the tables below as relative fluorescence units (RFU) and represent an average of three independent experiments.
Uptake of compound no. 446654 was measured via flow cytometry, as in Example 8, in HEK cells overexpressing EGFR and wild type HEK cells.

Malat1 RNA = experiment: Antisense activity by RT-qPCR, Malat1, HEK cells
Experimental: A431 cells were grown at 10,000 cells per well and pre-treated with a variety of growth factors to determine if the addition of exogenous growth factors affects antisense activity or uptake of modified antisense oligonucleotides in a cell. The growth factors used were EGF, insulin growth factor (IGF), transforming growth factor (TGF), […] (VEGF), hepatocyte growth factor (HGF), platelet growth factor (PGF) and fibroblasts growth factor (FGF). To test antisense activity, cells were treated for 4 hours with a growth factor or vehicle alone, and then treated with compound no. 25690 (complementary to Drosha), compound no. 395254 (complementary to Malat1), or vehicle alone. RNA was isolated from the cells and Drosha or Malat1 RNA levels were measured by RT-qPCR. Human primer probe set 13816 (forward sequence […], designated herein as SEQ ID NO: 3; reverse sequence […], designated herein as SEQ ID NO: 4; probe sequence […], designated herein as SEQ ID NO: 5) was used to measure Drosha mRNA levels and primer probe set RTS2736 (forward sequence […], designated herein as SEQ ID NO: 6; reverse sequence […], designated herein as SEQ ID NO: 7; probe sequence TGCCACATCGCCACCCCGT, designated herein as SEQ ID NO: 8) was used to measure Malat1 RNA levels. Drosha and Malat1 RNA levels were normalized to total RNA content, as measured by RIBOGREEN®. Results are presented in the tables below as normalized RNA levels, relative to untreated control cells.
HEK cells were transfected with 2 μg plasmid encoding EGFR using Lipofectamine 3000 (ThermoFisher) at 2 μg/million cells. Cells were grown for 2 weeks in G418 selection media to select clones overexpressing EGFR. Cells were treated with compound no. 395254 for 16 hours prior to RT-qPCR analysis for Malat1, as in Example 8. The results, shown in the table below, indicate that antisense activity was increased in cells with higher expression levels of EGFR.

[1] = FITC-EGF, 30 minutes, EGFR and clathrin antibodies
[2] = FITC-EGF, EGFR and EEA1 antibodies
[3] = unlabeled EGF, 30 minutes, EGFR and clathrin antibodies
[4] = unlabeled EGF, EGFR and EEA1 antibodies

## Cy3-^mCesTesGes^mCesTesAdsGds^mCdsTds^mCdsTdsGdsGdsAdsTesTesTesGesAe (antisense CTGCTAGCCTCTGGATTTGA; listed as DNA, chemistry not fully specified) [compound 446654, Cy3-labeled PS-ASO]
A431 cells; [1]
  co-localization with EGF: observed within the cytoplasm and at the cell surface
  co-localization with clathrin: observed at the cell surface
A431 cells; [2]
  co-localization with EEA1: observed within the cytoplasm
  co-localization with EGF: observed both at the cell surface and within the cytoplasm
A431 cells; [3]
  co-localization with EGFR: observed both at the cell surface and within the cytoplasm
  co-localization with clathrin: observed at the cell surface
A431 cells; [4]
  co-localization with EEA1: observed in the cytoplasm and within the nucleus
  co-localization with EGFR: observed at the cell surface, in the cytoplasm, and within the nucleus
EGFR
  distribution of the ASO in cells: distributed throughout the cytoplasm
HEK cells; 0.25 μM, Overexpressing EGFR
  RFU: 123 RFU
HEK cells; 0.25 μM, Wild type HEK cells
  RFU: 109 RFU
HEK cells; 0.5 μM, Overexpressing EGFR
  RFU: 163 RFU
HEK cells; 0.5 μM, Wild type HEK cells
  RFU: 143 RFU
HEK cells; 1 μM, Overexpressing EGFR
  RFU: 255 RFU
HEK cells; 1 μM, Wild type HEK cells
  RFU: 287 RFU
HEK cells; HEK cells overexpressing EGFR vs wild type
  uptake, effect of varying EGFR expression levels: did not affect

## GGCATATGCAGATAATGTTC (sugars from the 5' end e5 d10 e5, all phosphorothioate, methylation of C not given here) [compound 395254]
Malat1 RNA; 1 nM, HEK cells overexpressing EGFR
  Malat1 RNA (% Control): 100 % control
Malat1 RNA; 1 nM, Wild type HEK cells
  Malat1 RNA (% Control): 100 % control
Malat1 RNA; 2 nM, HEK cells overexpressing EGFR
  Malat1 RNA (% Control): 77.8 % control
Malat1 RNA; 2 nM, Wild type HEK cells
  Malat1 RNA (% Control): 98.3 % control
Malat1 RNA; 3.9 nM, HEK cells overexpressing EGFR
  Malat1 RNA (% Control): 73.4 % control
Malat1 RNA; 3.9 nM, Wild type HEK cells
  Malat1 RNA (% Control): 96 % control
Malat1 RNA; 7.8 nM, HEK cells overexpressing EGFR
  Malat1 RNA (% Control): 73.3 % control
Malat1 RNA; 7.8 nM, Wild type HEK cells
  Malat1 RNA (% Control): 87.5 % control
Malat1 RNA; 15.6 nM, HEK cells overexpressing EGFR
  Malat1 RNA (% Control): 68.1 % control
Malat1 RNA; 15.6 nM, Wild type HEK cells
  Malat1 RNA (% Control): 81.4 % control
Malat1 RNA; 31.3 nM, HEK cells overexpressing EGFR
  Malat1 RNA (% Control): 62.2 % control
Malat1 RNA; 31.3 nM, Wild type HEK cells
  Malat1 RNA (% Control): 86.2 % control
Malat1 RNA; 62.5 nM, HEK cells overexpressing EGFR
  Malat1 RNA (% Control): 62.4 % control
Malat1 RNA; 62.5 nM, Wild type HEK cells
  Malat1 RNA (% Control): 95.4 % control
Malat1 RNA; 125 nM, HEK cells overexpressing EGFR
  Malat1 RNA (% Control): 55.9 % control
Malat1 RNA; 125 nM, Wild type HEK cells
  Malat1 RNA (% Control): 82.7 % control
Malat1 RNA; 250 nM, HEK cells overexpressing EGFR
  Malat1 RNA (% Control): 52.9 % control
Malat1 RNA; 250 nM, Wild type HEK cells
  Malat1 RNA (% Control): 72.1 % control
Malat1 RNA; 1000 nM, HEK cells overexpressing EGFR
  Malat1 RNA (% Control): 36.5 % control
Malat1 RNA; 1000 nM, Wild type HEK cells
  Malat1 RNA (% Control): 47.1 % control
Malat1 RNA; 2000 nM, HEK cells overexpressing EGFR
  Malat1 RNA (% Control): 35.3 % control
Malat1 RNA; 2000 nM, Wild type HEK cells
  Malat1 RNA (% Control): 28.5 % control
Malat1 RNA; 5000 nM (so in the source), HEK cells overexpressing EGFR
  Malat1 RNA (% Control): 44.1 % control
Malat1 RNA; 5000 nM (so in the source), Wild type HEK cells
  Malat1 RNA (% Control): 54.8 % control
Malat1 RNA; 16 hours
  antisense activity in cells with higher expression levels of EGFR: increased
